These antisense oligonucleotides have a phosphorothioate backbone; sugars and methylation of C are not fully specified.
Each sequence was assayed against PRKACA. Settings: ASO.
Also: test concentration or dose not given here.

Point of comparison: AAGCAACCCACTGAACATGT, remaining target (mRNA or protein) (fraction of control) 0.62. Against it:
- AAACCACTTGTGGTTCTTGA — higher, 0.66
- ACCCTCGCAGGATTGGCAGA — lower, 0.47
- AGCACAAATGAGAAAGTGGG — higher, 0.93
- ATTCTTTCACGCTCTCCTGC — higher, 0.97
- CAAACTGATCCAAGTGGGCT — lower, 0.27
- CACACAGGTTGAATCGCCCC — lower, 0.39
- CAGGCAGCCCCTCCCCAGCA — lower, 0.51
- CATCGCGGCGGCGGCGGCCG — lower, 0.51
- CCAGCATCACCCGCCCGAAG — lower, 0.34
- CCCATCGCGGCGGCGGCGGC — lower, 0.53
- CCTTGAACCCCGGGCCGTGG — lower, 0.44
- CGCTGCTGGGAGGAAAGACT — lower, 0.48
- CGGCGGCGGCGTTGCCCATC — lower, 0.21
- CGGCGTTGCCCATCGCGGCG — lower, 0.47
- CTTCCTCATAGTCGTCAAAG — higher, 0.68
- CTTCTGTTTGTCGAGGATCT — lower, 0.49
- GAACATCTCCCCGCCGGGCA — higher, 0.87
- GCGGCCCTTCACGCGCTTGG — higher, ≥ 1
- GCGGCGGCGTTGCCCATCGC — lower, 0.33
- GCGGCGGGTGCTGGCTGCGG — higher, 0.85
- GCGTTGCCCATCGCGGCGGC — lower, 0.36
- GCTTCTCTTTAAAATGGATT — higher, 0.84
- GCTTGCAGGATGCGCTTTTC — lower, 0.34
- GGAGCAGCTGGTGTTTCTGT — lower, 0.61
- GGCATGCCCCTAAAACTCAG — lower, 0.55
- GGCGGCGGCGGCGTTGCCCA — lower, 0.51
- GGCGGCGTTGCCCATCGCGG — lower, 0.31
- GTTGCCCATCGCGGCGGCGG — lower, 0.53
- GTTGTCCTTGAAGGAGAACT — higher, ≥ 1
- TAGATGAGATCCAGCGAGTG — higher, 0.72
- TAGTTTTCAAATATGTTTAC — higher, ≥ 1
- TCCTTCAAGTCAGAGCTGAA — lower, 0.56
- TCGCGGCGGCGGCGGCCGGG — higher, 0.81
- TCTGCGAAGAAGGGCGGGTA — higher, ≥ 1
- TGCAGGGATGCCCTCCCCAC — lower, 0.35
- TGCCCATCGCGGCGGCGGCG — higher, 0.71
- TGGCTCCCCAGCGGCTCCCC — higher, 0.64
- TGGCTGCGGCCGGCGGCCCG — lower, 0.51
- TTGGCGCTTCGTTCATTTGC — lower, 0.61

Each sequence was assayed against PTPN11. Settings: ASO.

Point of comparison: GTCATGTTCCTCCCGCCCTC, remaining target (mRNA or protein) (fraction of control) 0.24. Against it:
- AAACCATCTCCGCGATGTCA — higher, 0.41
- AAAGAATCAAACCGTTCTCC — higher, 0.58
- AAAGTCATTCACCGTGTTTT — higher, 0.54
- AAGAATATCAATCACAATGA — higher, ≥ 1
- ACACCAGTGATATTTGGGTG — higher, ≥ 1
- ACATAAACTTTCTTGCGTCT — higher, 0.88
- ACCATCTCCGCGATGTCATG — higher, 0.33
- ACGGACCCGCTCCTTGCTCA — higher, 0.48
- AGAGCATACTCATCAGGCCA — lower, 0.2
- ATCTATTTCTGTGCTGAAGT — higher, 0.66
- ATCTGCACAGTTCAGAGGAT — higher, 0.51
- ATGCTCTCCTGCTTATGGTG — higher, 0.37
- ATGTCATGTTCCTCCCGCCC — higher, 0.43
- CACGTTTTCATAGACTCTAG — higher, 0.71
- CATCTCCGCGATGTCATGTT — higher, 0.49
- CATGTTCCTCCCGCCCTCCG — higher, 0.29
- CCCTTGTCCAACCTTTGAAA — higher, 0.25
- CCTGCGCTGTAGTGTTTCAA — higher, 0.5
- CGATGTCATGTTCCTCCCGC — higher, 0.4
- CGCACCATCTGGATGGTTTT — higher, 0.5
- CGCGATGTCATGTTCCTCCC — higher, 0.45
- CTGTGGTCTCAGCTAATTTG — higher, 0.35
- GAAAGAACAAAATCTCCAGG — higher, ≥ 1
- GGCAGGTTTTCTCATCTGAA — higher, 0.84
- GGCCCGCTCGGGACCGGACG — higher, 0.75
- TACAAGAAAACTACCATGTT — higher, ≥ 1
- TCAACCACATTGCAAGCCTT — higher, 0.27
- TCATCTGAAACTTTTCTGCT — higher, 0.84
- TCCACCATAGGATTCTTCTT — higher, 0.43
- TCCACTCGTCTGGTCCGCTA — higher, 0.29
- TCCGCGATGTCATGTTCCTC — higher, 0.26
- TCTCCGCGATGTCATGTTCC — higher, 0.43
- TGTTCCTCCCGCCCTCCGGC — higher, ≥ 1
- TTCCATGTAATACTGGACCA — higher, 0.29
- TTCTTCCCAAAAGCCTTGTT — higher, 0.67
- TTGATGTGGGTGACAGCTCC — higher, 0.42
- TTGCATTGATGTAATCTGAA — higher, 0.98
- TTTAAATGGTTTCAAATTTT — higher, ≥ 1
- TTTAGACTTGCCGTCATTGC — higher, 0.32

The sequences below were run against WWP1. Settings: ASO.

Point of comparison: AAATAACGGAAGTGAGCAAG, remaining target (mRNA or protein) (fraction of control) 0.88. Against it:
- AAATAGTGCCATGGCAATAA — higher, 0.98
- AACAGTAGTACTAGTGCAAT — higher, ≥ 1

These sequences were tested against SMAD7. Settings: ASO.

Point of comparison: GGCAAAAGCCATTCCCCT, remaining target (mRNA or protein) (fraction of control) 0.72. Against it:
- GGACATCCCCGCTTGCTG — higher, ≥ 1
- GGACTTGATGAAGATGGG — higher, ≥ 1
- GGCAGCTGCTGATGAACT — higher, 0.86
- GTAGAAGAAATGAAAGAA — higher, ≥ 1
- GTATGCCACCACGCACCA — higher, ≥ 1
- GTTGTCTCCCCATCTGCC — higher, ≥ 1
- TGCATGAAAAGCAAGCAC — higher, 0.91
- TGCCCAGGTACTGCCTCT — the same, 0.72
- TGCTTGGATTTCTGCTTC — higher, 0.89
- TGGACACAGTAGAGCCTC — higher, ≥ 1
- TTGGGACTGCAAACCTCT — higher, 0.91

The sequences below were run against MAP3K1. Settings: ASO.

Point of comparison: GTTGTCGTTGTAAAGTGTCT, remaining target (mRNA or protein) (fraction of control) 0.45. Against it:
- AATCCTTTTCCAGTTTTCTC — higher, 0.87
- ACATACTTAGGTAAGGGTTC — higher, 0.56
- ACCATTCTTGCAGAACTCAA — higher, 0.55
- AGTAACCATTCTTGCAGAAC — higher, ≥ 1
- ATCATGATTTGTCAATCACA — higher, 0.62
- ATTGGGTACTGTAGTAACCA — higher, 0.54
- ATTTCCACCTCATCTGCATA — lower, 0.44
- CAAGGCTGGAAACATTAATT — higher, 0.94
- CAGAAATGTCCTCTGAACTG — higher, 0.5
- CAGTCCGCCCGCTCGCGGCC — lower, 0.34
- CAGTTTTGAAAACACATGGG — higher, ≥ 1
- CATTCTTGCAGAACTCAAGT — higher, 0.54
- CCACCGACTCGGTAAGGTGG — higher, 0.81
- CCACTGGCCTCGTTCATAGC — lower, 0.21
- CCCACTCCCCGCTGCGTCCG — lower, 0.06
- CTGGTGAAGTGAGTGGAAAC — higher, 0.76
- CTGTAGTAACCATTCTTGCA — lower, 0.4
- CTGTTCAGTGGCATCATGGC — higher, 0.49
- GAATCCCTGAAGTCTATGCT — higher, 0.52
- GAGAAAACTTGCGCTGTGTT — lower, 0.37
- GCAACCCTTTGAGAGTTTCT — lower, 0.32
- GCACTAGTTTGGGCTTTTGC — lower, 0.28
- GCTCCTCCGCCGCCGCCTGC — lower, 0.27
- GGCAGCCGCGCGCGCGCTGC — higher, 0.81
- GGGGTACTGTAGTAACCATT — higher, 0.55
- GGTACTGTAGTAACCATTCT — higher, 0.53
- GTAGATATCAATGTGGTTCC — higher, 0.75
- GTAGTAACCATTCTTGCAGA — lower, 0.42
- GTCTGCCTTTTGTTTGAACC — higher, 0.67
- GTTTCCAGATAGTTGTTGGG — higher, 0.85
- TAACCATTCTTGCAGAACTC — higher, 0.59
- TACTGTAGTAACCATTCTTG — higher, 0.74
- TAGTTGATCTGTATAATTGG — higher, ≥ 1
- TCAGGCAGCTGGTCCAGCTC — higher, 0.52
- TTCTTGCAGAACTCAAGTAG — higher, ≥ 1
- TTGTTGAACTAGAAGGTCCT — higher, 0.57
- TTGTTGAGCATCCTGTTTCT — lower, 0.39
- TTGTTTTCAGGACAGTTTCT — higher, 0.65
- TTTTGCATACTGAGCTTAGG — higher, 0.48

Source: the OligoGym collection
